In patent US20070207120A1, “Selective Killing Of Cancer Cells By Induction Of Acetyltransferase Via Tnf-Alpha And Il-6” (priority 2004, published 2007):

Key:
Assay type in all cases: cell-based, human
normal WI38 cells = test: Cytokine and deacetylase inhibitor treatment, normal cells; conditions: for effect on / killing of normal WI38 cells: TSA, CBHA 2.5 μg/ml; for cell death in normal cells: in combination with cytokine treatment (TSA 400 nM; SAHA 5 μg/ml)
Procedure: (§1) Human cells WI38 (ATCC number CCL-75), WI38 VA13 (ECACC number 85062512), SaOS2 (ECACC number 89050205), U20S (ATCC number HTB-96), HeLa (CCL-2), HEK 293 (ATCC number CRL-1573) and Hs68 (ATCC number CRL-1635) were obtained from ATCC, ECACC or CR-UK cell services. All cells were cultured as monolayers in 10% foetal bovine serum in Dulbecco's minimal essential medium at 37° C. in 5% CO2, except SaOS2 cells which were cultured in McCoy's 5a medium supplemented with 1.5 mM L-glutamine and 15% foetal bovine serum. VA13 cells are WI38 primary fibroblasts transformed with SV40 virus and therefore share the same genetic background. To measure cell viability and total cell number, cells in suspension and adherent cells were collated and analysed by resuspending with a known concentration of CaliBRITE unlabelled beads (Becton Dickinson) plus propidium iodide and counting the number of live and dead cells per 3000 beads using a FACSCalibur flow cytometer (Becton Dickinson). Alternatively, an automated trypan blue assay using a Vi-Cell XR Cell Viability Analyzer (Beckman Coulter) was employed. Cells were treated with Interleukin 6 (20 ng/ml) for 24 hours, followed by addition of antibody 80M2 (1 μg/ml), which modulates TNFα receptor 2, and TNFα (10 ng/ml). TNFα was added to the cell culture medium 30 minutes after addition of 80M2. […] All agents were added to the cell culture medium in liquid form. […] For cytokine treatment in combination with deacetylase inhibitors, cells were harvested and counted 48 hours after addition of deacetylase inhibitor.

[1] = tested on: transformed WI38 VA13 cells; test: Cytokine and deacetylase inhibitor treatment, transformed cells; conditions: for efficacy in (selective) cell killing of transformed cells: alone and in combination with cytokine treatment, butyric acid 5 mM, TSA, CBHA 2.5 μg/ml, SAHA 5 μg/ml
Procedure: as §1

MCM3AP = test: Western blot of MCM3AP expression after cytokine treatment; conditions: HEK 293 cells; IL6 20 ng/ml, 24 hours later TNFα 10 ng/ml and 80M2 1 μg/ml; following three days
Procedure: HEK 293 cells (ATCC number CRL-1573) and Hs68 cells (ATCC number CRL-1635) were cultured as monolayers in 10% foetal calf serum in Dulbecco's minimal essential medium at 37° C. in 10% or 5% CO2 respectively, according to recommendations by the American Tissue Culture Collection. Stable cell lines of HEK 293 cells expressing inducible wild-type or mutant MCM3AP were made by stable transfection of vectors previously described by Takei et al. (2,3). Expression of MCM3AP was induced in these stable cell lines by treatment with doxycycline.
Exponentially growing cells were harvested and fractionated into soluble and structure-bound fractions. Cells were harvested by scraping adherent cells, pelleted by centrifugation at 200 g for 4 minutes and washed in cold PBS. The cell pellet was resuspended in cold hypotonic buffer (10 mM HEPES-KOH pH 7.3, 5 mM KCl, 1.5 mM MgCl2, 1 mM DTT, 1% NP40 and protease inhibitors) and incubated on ice for 15 minutes. Cells were centrifuged at 10,000 rpm for 5 minutes and the supernatant stored at −80° C. as the soluble protein fraction. […]
Samples were separated by 7.5% SDS-PAGE and transferred to PVDF membrane at a constant voltage of 10V for 1 hour. […] The bound antibodies were detected with peroxidase-conjugated secondary antibody (Amersham Biosciences) and protein bands visualised by the […] method using ECL or ECLplus (Amersham Biosciences). […]

HEK 293 cells = test: Apoptosis (annexin V) and attached cell number after cytokine treatment; conditions: HEK 293 attached cells; 24 hours after addition of TNFα and 80M2
Procedure: Cells were treated with Interleukin 6 (20 ng/ml) for 24 hours, followed by addition of antibody 80M2 (1 μg/ml), which modulates TNFα receptor 2, and TNFα (10 ng/ml). TNFα was added to the cell culture medium 30 minutes after addition of 80M2. All agents were added to the cell culture medium in liquid form. Cells were harvested after the indicated number of days of treatment, where ‘time zero’ corresponds to the point of addition of Interleukin 6.
Cells were assayed for apoptosis by Annexin V staining (Oncogene, Annexin V-FITC or Annexin V-Biotin apoptosis detection kit) and TUNEL assay (BD Biosciences, ApoAlert DNA fragmentation assay kit). Cells were assayed for Annexin V and TUNEL assay by flow cytometry, according to manufacturer's instructions. Attached cells were harvested and counted using a haemocytometer to give total attached cell number.
We examined the cell fate outcome of upregulating MCM3AP by cytokine treatment in HEK 293 cells. Treatment of HEK 293 cells with the same combination of cytokines that upregulates MCM3AP induces cell death by apoptosis (FIG. 4). Cells were treated with IL6 for 24 hours, followed by addition of TNFα and antibody 80M2. Attached cells were assayed for apoptosis and total cell number 24 hours and 36 hours later respectively.

Molecule	effect on / killing of normal WI38 cells (normal WI38 cells)	cell death in normal cells (normal WI38 cells) [%]	efficacy in (selective) cell killing of transformed cells [1]	MCM3AP protein expression (western blot) (MCM3AP)	further results
O=C(/C=C/c1cccc(C(=O)NO)c1)NO [CBHA, cinnamic acid bishydroxamic acid]	did not kill primary WI38 cells above background levels				
O=C(CCCCCCC(=O)Nc1ccccc1)NO [SAHA, suberoylanilide hydroxamic acid]		~40			
CC(/C=C/C(=O)NO)=C\[C@@H](C)C(=O)c1ccc(N(C)C)cc1 [TSA, trichostatin A]	minimal effect	~20	efficient in selectively killing transformed cells		effect of TSA at lower concentrations ([1]; 100 nM, 200 nM, 400 nM TSA): concentration dependent; transformed cells killed ([1]; three days of cytokine treatment in combination with deacetylase inhibitor (TSA 400 nM; CBHA 2.5 μg/ml; SAHA 5 μg/ml)): 80-90%; live cell number over time (normal WI38 cells; 400 nM TSA in combination with cytokine treatment, compare with t=0 value): reduction in live cell number
CCCC(=O)O [butyric acid]			least effective		
IL6: cytokine interleukin-6				does not stimulate MCM3AP significantly	
TNFα				does not stimulate MCM3AP significantly	apoptosis (annexin-V staining) (HEK 293 cells): markedly reduced
